Reference: patent US10253002B2, “Compounds and methods of treating infections” (Neoculi Pty Ltd., priority 2013, dated 2019)

Key:
[1] = control strain Enterococcus faecalis ATCC 29212; cited from earlier work
Staphylococcus aureus = settings: control strain Staphylococcus aureus ATCC 29213; cited from earlier work
S. pneumoniae isolates = assay: Disk diffusion susceptibility (CLSI/EUCAST), Example 5; assay type: cell-based, Streptococcus pneumoniae
Outline: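 Susceptibility to 12 antimicrobials was categorised (S/I/R) using CLSI breakpoints from zones of complete inhibition, read thrice to the nearest millimetre with the mode taken. Incubation was 16–24 h, 37 °C, 5% CO2.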

Streptococcus pneumoniae = settings: control strain Streptococcus pneumoniae ATCC 49619; cited from earlier work
[2] = system: methicillin-susceptible S. aureus ATCC 49775; assay: Time-kill assays (microdilution and 10 ml macrodilution), Example 4; assay type: cell-based, Staphylococcus aureus
Procedure: Bactericidal activity in macrodilution assays was identified as a 3 log10 decrease from the initial inoculum size. Bacteria were cultured overnight at 37° C. on SBA. Colonies were suspended in broth and the turbidity was adjusted to a 0.5 McFarland standard to obtain a bacterial suspension of […]. Bacterial suspensions were incubated at 37° C. with shaking. Aliquots were removed at 0, 1, 2, 4, 8, 12, and 24 h after antimicrobial addition, diluted, plated onto SBA and incubated for 48 h at 37° C. for viable count determination. Turbidimetric growth curves for S. aureus were obtained for Microtiter plate assays by monitoring optical density changes using a Bio-Rad Benchmark Plus microplate spectrophotometer at 600 nm. Optical densities were measured at 0, 1, 2, 4, 8, 12, and 24 h after antimicrobial addition.

[3] = system: non-VRE Enterococcus faecalis USA01; assay: MBC (CLSI methodology), Example 8; assay type: cell-based; settings: for NCL812 MBC test, growth on Sheep Blood Agar / Number of Bacteria Growing after 24 hours per ml of sample: E. faecalis (USA01)
[4] = Solubility in DMSO and CAMHB, Example 4
Text: Test antimicrobials were selected on the basis of solubility and antimicrobial activity from preliminary studies.

S. aureus KC01 = assay: Kill kinetics assay, Example 8; assay type: cell-based, Staphylococcus aureus
Procedure: (§1) S. aureus KC01 and E. faecalis USA01, not determined to be MRSA or VRE, respectively, were grown overnight on Columbia SBA at 37° C. A few colonies of bacteria were then suspended in CAMHB (cation-adjusted Mueller Hinton broth) and adjusted to OD600 of 0.08 to 0.10. The bacterial suspension was diluted 1:10. […] The tubes were incubated at 37° C., with constant shaking. In order to determine the number of viable bacteria present at various time points, a 100 μL aliquot was removed from each tube and diluted. Then, 100 μL of each dilution were spread onto colony count agar, in duplicate, and incubated for 48 h at 37° C. After 24 h the numbers of colonies present on each plate were counted and therefore the number of viable bacteria present in the original suspension enumerated. Plates were re-checked after 48 hours.

VRE = assay: Kill kinetics assay, Example 7; assay type: cell-based, Enterococcus spp.
Procedure: as §1, with “MRSA/VRE were” for “S. aureus KC01 and E. faecalis USA01, not determined to be MRSA or VRE, respectively, were”, “CAMHB” for “CAMHB (cation-adjusted Mueller Hinton broth)”, “to an optical density” for “to OD600”, “37° C.” for “37° C., with constant shaking.”, “and diluted in normal saline.” for “and diluted.”, “dilution was” for “dilution were”

SMILES: CC1(C)S[C@@H]2[C@H](NC(=O)[C@H](N)c3ccccc3)C(=O)N2[C@H]1C(=O)O [Ampicillin]
- Acceptable MIC range for Ampicillin [1]: 0.5 to 2 µg/mL
- Acceptable MIC range for Ampicillin (Staphylococcus aureus): 0.5 to 2 µg/mL
- disk diffusion zone diameter (S. pneumoniae isolates; A66.1): 37 mm
- disk diffusion zone diameter (S. pneumoniae isolates; D39): 37 mm
- disk diffusion zone diameter (S. pneumoniae isolates; EF3030): 38 mm
- disk diffusion zone diameter (S. pneumoniae isolates; L82016): 41 mm
- disk diffusion zone diameter (S. pneumoniae isolates; P9): 33 mm
- disk diffusion zone diameter (S. pneumoniae isolates; P21): 40 mm
- disk diffusion zone diameter (S. pneumoniae isolates; TIGR4): 37 mm
- disk diffusion zone diameter (S. pneumoniae isolates; WCH16): 41 mm
- disk diffusion zone diameter (S. pneumoniae isolates; WCH43): 36 mm
- disk diffusion zone diameter (S. pneumoniae isolates; WCH46): 37 mm
- disk diffusion zone diameter (S. pneumoniae isolates; WCH57): 43 mm
- disk diffusion zone diameter (S. pneumoniae isolates; WCH77): 43 mm
- disk diffusion zone diameter (S. pneumoniae isolates; WCH86): 38 mm
- disk diffusion zone diameter (S. pneumoniae isolates; WCH89): 38 mm
- disk diffusion zone diameter (S. pneumoniae isolates; WCH92): 38 mm
- disk diffusion zone diameter (S. pneumoniae isolates; WCH137): 40 mm
- disk diffusion zone diameter (S. pneumoniae isolates; WCH158): 42 mm
- disk diffusion zone diameter (S. pneumoniae isolates; WCH184): 33 mm
- disk diffusion zone diameter (S. pneumoniae isolates; WCH211): 39 mm
- disk diffusion zone diameter (S. pneumoniae isolates; WU2): 38 mm
- Resistance status to Ampicillin (S. pneumoniae isolates; isolate A66.1): Sensitive
- Resistance status to Ampicillin (S. pneumoniae isolates; isolate D39): Sensitive
- Resistance status to Ampicillin (S. pneumoniae isolates; isolate P21): Sensitive
- Resistance status to Ampicillin (S. pneumoniae isolates; isolate WCH57): Sensitive
- Resistance status to Ampicillin (S. pneumoniae isolates; isolate WCH158): Sensitive
- Resistance status to Ampicillin (S. pneumoniae isolates; isolate WU-2): Sensitive
- Acceptable MIC range for Ampicillin (Streptococcus pneumoniae): 0.06 to 0.25 µg/mL

SMILES: N=C(N/N=C/c1ccc(Cl)cc1)N/N=C/c1ccc(Cl)cc1 [NCL812, 1,3-bis[(E)-(4-chlorophenyl)methyleneamino]guanidine]
- bacterial growth, turbidimetric growth curve ([2]; ATCC 49775, 1× and 4× the MIC, microdilution, up to 24 h): no visible bacterial growth
- remained bactericidal until (then regrowth) ([2]; ATCC 49775, 10 mL macrodilution, 1× and 4× the MIC): 8 to 12 h
- bacterial regrowth observed at, after antimicrobial addition ([2]; ATCC 49775 time-kill): 12 h
- NCL812 MBC test, growth on Sheep Blood Agar ([3]; 4 μg/ml): +
- Number of Bacteria Growing after 24 hours per ml of sample ([3]; 4 μg/ml): 488 CFU/ml
- NCL812 MBC test, growth on Sheep Blood Agar ([3]; 8 μg/ml): +
- NCL812 MBC test, growth on Sheep Blood Agar ([3]; 16 μg/ml): +
- NCL812 MBC test, growth on Sheep Blood Agar ([3]; 32 μg/ml): +
- Number of Bacteria Growing after 24 hours per ml of sample ([3]; 32 μg/ml): 7 CFU/ml
- NCL812 MBC test, growth on Sheep Blood Agar ([3]; 64 μg/ml): +
- Number of Bacteria Growing after 24 hours per ml of sample ([3]; 64 μg/ml): 1 CFU/ml
- NCL812 MBC test, growth on Sheep Blood Agar ([3]; […]): +
- MBC test outcome ([3]; E. faecalis USA01): growth of bacteria was observed at all concentrations of NCL812 tested
- Solubility CAMHB ([4]; cation-adjusted Mueller-Hinton II broth): Cloudy precipitates
- Solubility DMSO ([4]; dimethyl sulfoxide): Good
- reduction in bacterial numbers from initial numbers (S. aureus KC01; 2 h): ≥ 2.5 log10
- reduction in comparison to the control at the same time point (S. aureus KC01; 2 h): > 3 log10
- reduction in bacterial numbers (S. aureus KC01; 6 h incubation): ≥ 2 log10
- numbers of bacteria versus control (S. aureus KC01; after 24 h): not significantly different to the control
- reduction in the viable count compared to the control (VRE; at 4 h): ~2 log10
- reduction in the viable count compared to the control (VRE; at 8 h): ~2.5 log10
- growth of bacteria versus control (VRE; at 24 h): no longer as significantly reduced in comparison to the control
